“Also recorded” adds a separate entry of the source.
Experiments:
[1] = test system: DNBS model of intestinal bowel disease in mice; settings: cited from earlier work
[2] = test system: mouse peritoneal macrophages; assay: Cytotoxicity assays (MTT cell respiration and neutral red uptake); assay type: cell-based; settings: isolated phytocannabinoids, 24 hours incubation, highest 10 μM concentration, FIG. 1
Method: (§1) Peritoneal macrophages were obtained from mice as previously described by Rossi et al. (Rossi et al. 2010). Briefly, to evoke the production of peritoneal exudates rich in macrophages, mice were injected intraperitoneally (i.p.) with 1 ml of 10% sterile thioglycollate (Sigma, Milan, Italy). After 4 days, mice were euthanized and peritoneal macrophages were collected and seeded in appropriate plates for performing in vitro experiments.
Peritoneal macrophages were cultured in Dulbecco's modified Eagle's medium (DMEM) supplemented with 10% fetal bovine serum. The inflammatory response in peritoneal macrophages was induced by lipopolysaccharide (LPS) from Escherichia coli serotype 0111:B4 (1 μg/ml). The response in macrophages was measured after 18 h LPS incubation.
Cell viability was assessed by evaluating cell respiration as well as neutral red (NR) uptake. Cell respiration was assessed by the mitochondrial-dependent reduction of 3-(4,5-dimethylthiazol-2-yl)-2,5-diphenyltetrazolium bromide (MTT) to formazan. After incubation with one of the phytocannabinoids for 24 hours, macrophages (1×10^5 cells per well seeded in a 96-well plate) were incubated with MTT (250 μg/ml) for 1 h.
The extent of reduction of MTT to formazan was quantitated by measuring the optical density at 490 nm (iMark™ microplate assorbance reader, BioRad). […]

[3] = test system: LPS-stimulated nitrite levels in mouse peritoneal macrophages; assay: Nitrites measurement in medium of LPS-stimulated macrophages; assay type: cell-based; settings: non-cytotoxic concentrations (0.1-10 pM), 30 min pre-treatment, then LPS 1 μg/ml 18 hours, FIG. 3 and 4
Method: as §1, with “Briefly,” for “Peritoneal macrophages were obtained from mice as previously described by Rossi et al. (Rossi et al. 2010). Briefly,”
Peritoneal macrophages were cultured in Dulbecco's modified Eagle's medium (DMEM) supplemented with 10% fetal bovine serum. […] The response in macrophages was measured after 18 h LPS incubation.
Nitrites, stable metabolites of NO, were measured in macrophages medium as previously described. Macrophages (5×10^5 cells per well seeded in a 24-well plate) were incubated with test article ([…]) for 30 min, and subsequently with LPS (1 μg/ml) for 18 hours.
The test articles were used at non-cytotoxic concentrations as a pre-treatment for 30 min before LPS-stimulation.

[4] = test system: DNBS-induced colitis mice; assay: DNBS-induced colitis, body weight and colon weight/colon length ratio; assay type: in vivo, mouse
Method: (§2) Cannabigerol (CBG), cannabichromene (CBC) and tetrahydrocannabivarin (THCV) were dissolved in ethanol/Tween20/saline. Animals were placed in groups and administered with test article (60 μl per mouse) via IP once daily. Treatment started 3 days before DNBS administration for the preventative treatment experiments or 1 day after DNBS administration for the curative treatments. Test article was administered daily until the sacrifice of the animals, 3 days after DNBS treatment. THCV was only tested for a curative effect.
(§3) Colitis was induced in mice by the intra-colonic administration of DNBS. Briefly, mice were anesthetized and DNBS (8 mg/mouse) was inserted into the colon using a polyethylene catheter (1 mm in diameter) via the rectum (4.5 cm from the anus). Three days after DNBS administration, all animals were euthanized by asphyxiation with CO2. The abdomen was opened by a midline incision and the colon removed, isolated from surrounding tissues, opened along the anti-mesenteric border, rinsed, weighed, length measured, and processed for evaluations.
The colon weight/colon length ratio activity were determined as index of inflammation. Body weight was also evaluated.

[5] = test system: inducible nitric oxide synthase (iNOS); assay: iNOS expression in full-thickness colons by western blot, DNBS-induced colitis; assay type: in vivo, mouse; settings: DNBS-treated mice, FIG. 11
Method: as §2, §3
iNOS expression was measured in full-thickness colons from control and DNBS-treated mice by western blot analysis.

[6] = post-treatment (curative), IP once daily from 1 day after DNBS
[7] = treatment after induction of colitis (curative), IP once daily from 1 day after DNBS
[8] = pre-treatment (preventative), IP once daily from 3 days before DNBS

SMILES: C=C(C)[C@@H]1CCC(C)=C[C@H]1c1c(O)cc(CCCCC)cc1O [CBD, Cannabidiol]
- anti-inflammatory effect in DNBS model [1]: anti-inflammatory effect

SMILES: CCCc1cc(O)c2c(c1)OC(C)(C)[C@@H]1CCC(C)=C[C@@H]21 [THCV, Tetrahydrocannabivarin]
- cytotoxicity / cell viability [2]: significantly reduced cell viability
- LPS-stimulated nitrite levels [3]: significantly reduced; also recorded: reduce LPS-stimulated nitrite production
- colon weight:colon length ratio [4, 6]: significant (p<0.05) reduction
- body weight (decrease associated with the inflammatory response) [4, 7]: prevention of the decrease in bodyweight that is associated with the inflammatory response, however this decrease was not statistically significant
- level of expression of iNOS in colonic tissues [5]: statistically significantly (p<0.001) lower

SMILES: CCCCCc1cc(O)c(C/C=C(\C)CCC=C(C)C)c(O)c1 [CBG, Cannabigerol]
- LPS-stimulated nitrite levels [3]: significantly reduced; also recorded: reduce LPS-stimulated nitrite production
- colon weight:colon length ratio [4, 6]: significant (p<0.05) reduction
- body weight (decrease associated with the inflammatory response) [4, 8]: highly statistically significant (p<0.001) prevention of the decrease in bodyweight
- colon weight:colon length ratio [4, 8]: significant (p<0.05) reduction
- body weight (decrease associated with the inflammatory response) [4, 7]: did however not result in a decrease in body weight
- level of expression of iNOS in colonic tissues [5]: statistically significantly (p<0.05) lower

SMILES: C=C(C)[C@@H]1CCC(C)=C[C@H]1c1c(O)cc(CCC)cc1O [CBDV, Cannabidivarin]
- LPS-stimulated nitrite levels [3]: reduce LPS-stimulated nitrite production

SMILES: CCCCCc1cc(O)c2c(c1)OC(C)(CCC=C(C)C)C=C2 (centres unmarked) [CBC, Cannabichromene]
- cytotoxicity / cell viability [2]: significantly reduced cell viability
- LPS-stimulated nitrite levels [3]: reduce LPS-stimulated nitrite production
- colon weight:colon length ratio [4, 6]: decrease in the colon weight:length ration however this was not as statistically significant
- body weight (decrease associated with the inflammatory response) [4, 8]: significant (p<0.05) prevention of the decrease in bodyweight
- colon weight:colon length ratio [4, 8]: significant (p<0.05) reduction
- body weight (decrease associated with the inflammatory response) [4, 7]: did not however result in a decrease in body weight
- level of expression of iNOS in colonic tissues [5]: did not show a reduction

— patent US9421187B2, “Phytocannabinoids for use in the treatment of intestinal inflammatory diseases” (GW Pharma Limited, priority 2011, dated 2016)
